Results reported in ChEMBL document CHEMBL1201862, “PubChem BioAssay data set” (2004).
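These data come from cells grown in 96-well plates and exposed to compound for 48 hours at five concentrations. GI50 = concentration required for 50% inhibition of growth.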 Activity calls are given as the source filed them. No stated cut-off is given here; in the data, active = GI50 up to about 1.1 µM and inactive = higher.

Tests used:
Assay in all cases: NCI anticancer screen, dose series, 48 h
[1] = tested on: MDA-MB-231
[2] = tested on: COLO 205
[3] = tested on: LOX IMVI
[4] = tested on: DU-145
[5] = tested on: M14
[6] = tested on: SR
[7] = tested on: HL-60
[8] = tested on: HT-29
[9] = tested on: HOP-62
[10] = tested on: RXF 393
[11] = tested on: RPMI-8226
[12] = tested on: KM12
[13] = tested on: SNB-75
[14] = tested on: T47D
[15] = tested on: NCI-H460
[16] = tested on: NCI-H522
[17] = tested on: PC-3
[18] = tested on: CAKI-1

Structure (SMILES)	GI50 [1]	GI50 [2]	GI50 [3]	GI50 [4]	GI50 [5]	GI50 [6]	GI50 [7]	GI50 [8]	GI50 [9]	GI50 [10]	GI50 [11]	GI50 [12]	GI50 [13]	GI50 [14]	GI50 [15]	GI50 [16]	GI50 [17]	GI50 [18]
CCOC(=O)Nc1ccc2c(c1)c(CCCCCCc1nc3ccccc3c3ccc(NC(=O)OCC)cc13)nc1ccccc12	30.5 µM (inactive)	> 100 µM (inactive)	21.6 µM (inactive)	> 100 µM (inactive)	29.1 µM (inactive)	> 100 µM (inactive)	> 100 µM (inactive)	> 100 µM (inactive)	27.7 µM (inactive)	47.2 µM (inactive)	> 100 µM (inactive)	> 100 µM (inactive)	16.3 µM (inactive)	> 100 µM (inactive)	61.9 µM (inactive)	22.9 µM (inactive)	> 100 µM (inactive)	34.8 µM (inactive)
N#Cc1c2ccccc2cn1-c1ccc(F)cc1	–	26.2 µM (inactive)	–	–	35.2 µM (inactive)	> 10 µM (inactive)	4.62 µM (inactive)	23.5 µM (inactive)	23 µM (inactive)	–	22 µM (inactive)	21.8 µM (inactive)	2.61 µM (inactive)	–	29.7 µM (inactive)	14.4 µM (inactive)	–	33 µM (inactive)
N#CCCC1(CCC#N)CCCCCCCCC(CCC#N)(CCC#N)C(O)C1O (configuration not stated)	–	> 100 µM (inactive)	> 100 µM (inactive)	> 100 µM (inactive)	> 100 µM (inactive)	–	–	> 100 µM (inactive)	61.7 µM (inactive)	31.9 µM (inactive)	< 0.01 µM (active)	> 100 µM (inactive)	> 100 µM (inactive)	> 100 µM (inactive)	> 100 µM (inactive)	30.3 µM (inactive)	> 100 µM (inactive)	> 100 µM (inactive)
N#Cc1c2c(c(N=[N+]=[N-])n3c1nc1ccccc13)CCCC2	–	3.27 µM (inactive)	1.8 µM (inactive)	–	1.93 µM (inactive)	2.1 µM (inactive)	2.32 µM (inactive)	1.98 µM (inactive)	16.2 µM (inactive)	1.77 µM (inactive)	1.71 µM (inactive)	2.29 µM (inactive)	1.97 µM (inactive)	–	1.92 µM (inactive)	–	–	2.72 µM (inactive)
[N-]=[N+]=NC1C(Br)C(=O)NC(=O)N1[C@H]1C[C@H](O)[C@@H](CO)O1 (some centres not stated)	–	> 100 µM (inactive)	> 100 µM (inactive)	–	> 100 µM (inactive)	–	> 100 µM (inactive)	> 100 µM (inactive)	> 100 µM (inactive)	> 100 µM (inactive)	–	> 100 µM (inactive)	> 100 µM (inactive)	–	> 100 µM (inactive)	> 100 µM (inactive)	–	–
C=C(CC(=O)Nc1ccc(C(=O)OC)o1)C(=O)OC	27.7 µM (inactive)	19.6 µM (inactive)	30.8 µM (inactive)	31.9 µM (inactive)	19.1 µM (inactive)	–	–	26.5 µM (inactive)	73.3 µM (inactive)	18.5 µM (inactive)	–	19.9 µM (inactive)	32.4 µM (inactive)	23.2 µM (inactive)	29.9 µM (inactive)	19.9 µM (inactive)	23.6 µM (inactive)	24.5 µM (inactive)
COc1cccc(N(CN2C(=O)CCC2OC)C(C)=O)c1 (configuration not stated)	> 100 µM (inactive)	> 100 µM (inactive)	> 100 µM (inactive)	> 100 µM (inactive)	> 100 µM (inactive)	> 100 µM (inactive)	22.6 µM (inactive)	> 100 µM (inactive)	> 100 µM (inactive)	> 100 µM (inactive)	> 100 µM (inactive)	> 100 µM (inactive)	> 100 µM (inactive)	> 100 µM (inactive)	> 100 µM (inactive)	–	> 100 µM (inactive)	> 100 µM (inactive)
[O-][S+](CCc1ccccc1)Nc1ccccc1 (configuration not stated)	> 100 µM (inactive)	> 100 µM (inactive)	> 100 µM (inactive)	> 100 µM (inactive)	> 100 µM (inactive)	> 100 µM (inactive)	> 100 µM (inactive)	> 100 µM (inactive)	> 100 µM (inactive)	55.5 µM (inactive)	> 100 µM (inactive)	> 100 µM (inactive)	> 100 µM (inactive)	–	> 100 µM (inactive)	> 100 µM (inactive)	> 100 µM (inactive)	> 100 µM (inactive)
CC1CC(N)=C(C#N)C1(C#N)C#N (configuration not stated)	> 100 µM (inactive)	> 100 µM (inactive)	> 100 µM (inactive)	> 100 µM (inactive)	> 100 µM (inactive)	–	> 100 µM (inactive)	> 100 µM (inactive)	–	> 100 µM (inactive)	> 100 µM (inactive)	> 100 µM (inactive)	74.3 µM (inactive)	> 100 µM (inactive)	–	> 100 µM (inactive)	> 100 µM (inactive)	24.3 µM (inactive)
Cc1ncc([N+](=O)[O-])n1CCNC(=O)CCCn1cnc([N+](=O)[O-])n1	> 100 µM (inactive)	> 100 µM (inactive)	> 100 µM (inactive)	> 100 µM (inactive)	> 100 µM (inactive)	> 100 µM (inactive)	> 100 µM (inactive)	> 100 µM (inactive)	> 100 µM (inactive)	> 100 µM (inactive)	> 100 µM (inactive)	> 100 µM (inactive)	98.6 µM (inactive)	> 100 µM (inactive)	> 100 µM (inactive)	> 100 µM (inactive)	> 100 µM (inactive)	> 100 µM (inactive)
O=c1c(Br)cc2c(-c3ccccc3)c3cc(Br)c(O)c(Br)c3oc-2c1Br	> 100 µM (inactive)	51.2 µM (inactive)	37.4 µM (inactive)	> 100 µM (inactive)	> 100 µM (inactive)	–	51.6 µM (inactive)	21.7 µM (inactive)	> 100 µM (inactive)	> 100 µM (inactive)	> 100 µM (inactive)	> 100 µM (inactive)	–	> 100 µM (inactive)	77.4 µM (inactive)	–	> 100 µM (inactive)	> 100 µM (inactive)
CSc1nc(SC)c2c(C(N)=S)n[nH]c2n1	–	18.2 µM (inactive)	24.1 µM (inactive)	–	31.9 µM (inactive)	30.7 µM (inactive)	–	33 µM (inactive)	23.2 µM (inactive)	22.8 µM (inactive)	23.1 µM (inactive)	37.4 µM (inactive)	25.9 µM (inactive)	–	23.6 µM (inactive)	> 10 µM (inactive)	–	21.1 µM (inactive)
COCc1cc2c(cc1/C(=C/[N+](=O)[O-])CS(=O)(=O)c1ccccc1)OCO2	–	> 100 µM (inactive)	> 100 µM (inactive)	> 100 µM (inactive)	> 100 µM (inactive)	> 100 µM (inactive)	> 100 µM (inactive)	> 100 µM (inactive)	> 100 µM (inactive)	> 100 µM (inactive)	> 100 µM (inactive)	–	> 100 µM (inactive)	> 100 µM (inactive)	> 100 µM (inactive)	43.6 µM (inactive)	–	> 100 µM (inactive)
COc1ccc(N[S+]([O-])CCc2ccccc2)cc1 (configuration not stated)	> 100 µM (inactive)	> 100 µM (inactive)	> 100 µM (inactive)	> 100 µM (inactive)	> 100 µM (inactive)	> 100 µM (inactive)	> 100 µM (inactive)	> 100 µM (inactive)	> 100 µM (inactive)	> 100 µM (inactive)	> 100 µM (inactive)	> 100 µM (inactive)	> 100 µM (inactive)	–	> 100 µM (inactive)	> 100 µM (inactive)	–	> 100 µM (inactive)
C=CC[C@@]12CCC(=O)C=C1CCCC2=O	> 100 µM (inactive)	> 100 µM (inactive)	> 100 µM (inactive)	> 100 µM (inactive)	> 100 µM (inactive)	> 100 µM (inactive)	> 100 µM (inactive)	> 100 µM (inactive)	> 100 µM (inactive)	> 100 µM (inactive)	> 100 µM (inactive)	–	–	> 100 µM (inactive)	> 100 µM (inactive)	> 100 µM (inactive)	> 100 µM (inactive)	> 100 µM (inactive)
CC(C)c1c(O[Si](C(C)C)(C(C)C)C(C)C)c2c3c(ccc4c3c1OC4(C)C)C(C)CC2 (configuration not stated)	> 100 µM (inactive)	> 100 µM (inactive)	> 100 µM (inactive)	> 100 µM (inactive)	> 100 µM (inactive)	> 100 µM (inactive)	> 100 µM (inactive)	> 100 µM (inactive)	> 100 µM (inactive)	> 100 µM (inactive)	> 100 µM (inactive)	> 100 µM (inactive)	21.3 µM (inactive)	–	> 100 µM (inactive)	> 100 µM (inactive)	> 100 µM (inactive)	> 100 µM (inactive)
CC[S+](C)c1ccc(-c2c3nc(c(-c4ccc([S+](C)CC)cc4)c4ccc([nH]4)c(-c4ccc([S+](C)CC)cc4)c4nc(c(-c5ccc([S+](C)CC)cc5)c5ccc2[nH]5)C=C4)C=C3)cc1.[O-][Cl+3]([O-])([O-])[O-].[O-][Cl+3]([O-])([O-])[O-].[O-][Cl+3]([O-])([O-])[O-].[O-][Cl+3]([O-])([O-])[O-] (configuration not stated)	–	35.9 µM (inactive)	11.3 µM (inactive)	–	24.9 µM (inactive)	18.5 µM (inactive)	6.41 µM (inactive)	29.2 µM (inactive)	30.1 µM (inactive)	13.6 µM (inactive)	7.78 µM (inactive)	20.3 µM (inactive)	24.3 µM (inactive)	–	22 µM (inactive)	29.6 µM (inactive)	–	39.1 µM (inactive)
